≈ marks a conversion by molar mass, not a printed value. Read-outs that look alike come from different tables or passages of the source. Bounds are passed on as bounds.

The target of one data set is USP7 (Homo sapiens (Human), UniProt Q93009). The data set can be described thus: USP7 fluorescence polarisation (FP) biochemical assay, ubiquitin-Lys-TAMRA substrate. An outline of the steps: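 Full-length His6-USP7 (2.5 nM) incubated ± inhibitor (8-point dilutions, 200 to 0.1 μM before addition) in 50 mM HEPES pH 7.2, 150 mM NaCl, 0.5 mM EDTA, 5 mM DTT, 0.05% BSA, 0.05% CHAPS. Ubiquitin-Lys-TAMRA cleavage followed by FP (ex 530/em 575 nm) every 15 min for 1.5 h; normalised to no-compound control.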
For orientation: Fluorescence polarisation rises when a labelled molecule tumbles more slowly, as on binding a larger partner.

The test system of another data set is LNCaP cells. Briefly: LNCaP proliferation assay (CellTiter-Glo). As to conditions: Homo sapiens, Table 1, cell viability after 168 h. In kind it is cell-based. The protocol: LNCaP cells from ATCC, were seeded in 96 well plate format (typically 2500 cells/well) in their growth media (RPMI, Life Technologies #52400-025+10% Fetal Calf Serum, Life Technologies #10500-064) and treated after 24 h with increasing concentration of compound from 0 to 30 μM. Cell viability was assessed after 168 h by CellTiter-Glo® as recommended by the manufacturer's instructions (Promega). Analysis and EC50 values were derived using GraphPadPrism.

A further data set has as its system SJSA-1 cells. The data set can be described thus: p53, p21 and MDM2 protein levels by western blotting in SJSA-1. In kind it is cell-based. The conditions noted are these: SJSA-1, 24 h treatment. As for the experimental part:
This osteosarcoma cell line with a known functional p53 pathway was used as a second model for these experiments. Cells were treated as described above and samples analysed by western blotting as indicated. Similar observations were made with stabilisation of p53, p21 induction and MDM2 decreased levels in a concentration dependent manner.
p53, p21 and MDM2 Protein Levels
For orientation: In western blotting, separated proteins are transferred to a membrane and probed.

A further data set relates to HCT116 cells. Briefly: p53, p21 and MDM2 protein levels by western blotting in HCT116. As to conditions: HCT116, 24 h treatment. In kind it is cell-based.
The next data set can be described thus: Kinetic solubility assay. In kind it is physicochemical. The conditions noted are these: PBS buffer pH 7.4 with 2% DMSO, aqueous buffer, kinetic from dmso stock, PBS buffer pH 7.4, 2% DMSO, RT, read-out: KSol. As for the experimental part: Samples were prepared by adding 4 μL of the 10 mM compound DMSO stock solutions into 196 μL of PBS buffer pH 7.4 in the 96 well filter plates, yielding a compound concentration of 200 μM and 2% DMSO. The PBS buffer pH7.4 was prepared by Genentech media lab. Filter plates were sealed with aluminum sealing film and shaken at RT at 1000 rpm. After 24 h, the solutions were filtered into a clean 96 well plates utilizing a vacuum manifold. After filtration, some precipitate was often observed at the bottom of the filtration plate wells. Most of the precipitates appeared to be crystalline under a polarizing light microscope. […]
Samples were detected and analyzed using UV 254 nm and CLND. UV 254 nm is used primarily to confirm the sample purity but in rare cases, is also used to quantify the concentration of compounds with no nitrogens, where additional work was done to create a compound specific calibration curve. […] Sample quantification was accomplished by CLND peak intensity, the calibration curve, and the number of nitrogen contained in the compound. One calibration curve of caffeine was used for solubility quantitative determination. […] The number of nitrogens in a compound used for this quantification needs to be corrected for the actual configuration of the nitrogen in the compound. […]

Setting [1] is: Table 1, R9a = H versus R9a = Cl, read-out: USP7 IC50.
Setting [2] is: Table 4, biochemical assay, average of at least duplicate experiments, read-out: USP7 IC50.
[3] abbreviates: USP7 IC50, Table 4, biochemical assay, average of at least duplicate experiments.

USP7, sequence (Q93009 whole entry): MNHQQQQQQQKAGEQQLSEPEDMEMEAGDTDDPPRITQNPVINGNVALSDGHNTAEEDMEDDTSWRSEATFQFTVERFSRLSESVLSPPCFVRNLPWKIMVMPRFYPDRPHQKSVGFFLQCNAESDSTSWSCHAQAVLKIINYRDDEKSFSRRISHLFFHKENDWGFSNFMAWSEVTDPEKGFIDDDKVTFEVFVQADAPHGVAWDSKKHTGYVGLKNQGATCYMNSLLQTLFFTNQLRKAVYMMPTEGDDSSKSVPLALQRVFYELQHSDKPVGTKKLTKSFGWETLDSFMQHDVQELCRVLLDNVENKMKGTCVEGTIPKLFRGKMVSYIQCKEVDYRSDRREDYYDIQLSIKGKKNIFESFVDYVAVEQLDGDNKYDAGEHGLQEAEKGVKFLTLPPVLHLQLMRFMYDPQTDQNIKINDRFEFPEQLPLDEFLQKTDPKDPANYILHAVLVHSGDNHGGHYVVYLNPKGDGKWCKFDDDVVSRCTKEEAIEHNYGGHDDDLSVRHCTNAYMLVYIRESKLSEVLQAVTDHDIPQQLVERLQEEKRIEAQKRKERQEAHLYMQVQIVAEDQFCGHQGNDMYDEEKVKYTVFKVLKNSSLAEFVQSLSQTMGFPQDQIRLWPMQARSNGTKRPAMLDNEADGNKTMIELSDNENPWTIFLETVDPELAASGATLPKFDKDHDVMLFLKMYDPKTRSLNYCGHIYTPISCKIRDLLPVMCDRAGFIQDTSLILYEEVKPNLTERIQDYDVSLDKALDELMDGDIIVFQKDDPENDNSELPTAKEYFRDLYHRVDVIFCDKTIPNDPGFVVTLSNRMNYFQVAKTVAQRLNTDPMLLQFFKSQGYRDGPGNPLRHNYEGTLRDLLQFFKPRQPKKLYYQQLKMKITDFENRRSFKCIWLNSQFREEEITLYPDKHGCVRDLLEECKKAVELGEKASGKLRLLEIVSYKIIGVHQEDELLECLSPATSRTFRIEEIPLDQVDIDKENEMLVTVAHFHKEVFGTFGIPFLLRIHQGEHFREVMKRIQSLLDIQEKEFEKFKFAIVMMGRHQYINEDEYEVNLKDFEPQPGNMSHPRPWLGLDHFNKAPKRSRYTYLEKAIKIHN

`CC1(C(=O)N2CCC(O)(Cn3cnc4c(cc(Cl)n4-c4ccc(Cl)cc4)c3=O)CC2)CC1` [Example 203, 6-Chloro-7-(4-chlorophenyl)-3-((4-hydroxy-1-(1-methylcyclopropanecarbonyl)piperidin-4-yl)methyl)-3H-pyrrolo[2,3-d]pyrimidin-4(7H)-one]: the IC50 was 220 nM at USP7 (setting [1]) and under 250 nM at USP7 (setting [2]). The molecule also registered an EC50 in the data set with LNCaP cells of 22 nM.
Consider `CC1(C(=O)N2CCC(O)(Cn3cnc4c(cc(Cl)n4-c4ccc5c(c4)OCO5)c3=O)CC2)CC1` [Example 202, 7-(Benzo[d][1,3]dioxol-5-yl)-6-chloro-3-((4-hydroxy-1-(1-methylcyclopropanecarbonyl)piperidin-4-yl)methyl)-3H-pyrrolo[2,3-d]pyrimidin-4(7H)-one], for which the results for the IC50 at USP7 (setting [1]) and on USP7 (setting [2]) were 250 nM and 250 to 999 nM, respectively. This molecule returned an EC50 in the data set with LNCaP cells of 51 nM.
`C[C@H](CC(=O)N1CCC(O)(Cn2cnc3c(-c4cccc(N)c4)n(C)nc3c2=O)CC1)c1ccccc1` [Example 29, (R)-3-(3-Aminophenyl)-6-((4-hydroxy-1-(3-phenylbutanoyl)piperidin-4-yl)methyl)-2-methyl-2H-pyrazolo[4,3-d]pyrimidin-7(6H)-one]: the “p53, p21 and MDM2 protein levels” value is “dose-dependent p53 stabilisation, p21 induction and concomitant decrease in MDM2 levels” in the data set on SJSA-1 cells; “dose-dependent p53 stabilisation, p21 induction and concomitant decrease in MDM2 levels” in the data set on HCT116 cells.
Regarding `Cn1cc(-c2cccc(-n3c(Cl)cc4c(=O)n(CC5(O)CCN(C(=O)C6(C)CC6)CC5)cnc43)c2)cn1` [Example 212, 6-Chloro-3-((4-hydroxy-1-(1-methylcyclopropanecarbonyl)piperidin-4-yl)methyl)-7-(3-(1-methyl-1H-pyrazol-4-yl)phenyl)-3H-pyrrolo[2,3-d]pyrimidin-4(7H)-one], the results for the concentration for half-maximal inhibition (IC50) at USP7 (setting [1]) and on USP7 (setting [2]) were 140 nM and under 250 nM, respectively. In the data set on LNCaP cells, this molecule returned an EC50 of 55 nM.
On to `CC1(C(=O)N2CCC(O)(Cn3cnc4c(cc(Cl)n4-c4ccccc4)c3=O)CC2)CC1` [Example 200, 6-Chloro-3-((4-hydroxy-1-(1-methylcyclopropanecarbonyl)piperidin-4-yl)methyl)-7-phenyl-3H-pyrrolo[2,3-d]pyrimidin-4(7H)-one], for which, in “Kinetic solubility assay”, the solubility kinetic at 24 h was 173 µM (≈ 76.3 µg/mL). Further, the IC50 at USP7 (setting [2]) lay in the range of 250 to 999 nM.
On to `Cn1nc2c(=O)n(CC3(O)CCN(C(=O)C[C@H](c4ccccc4)C(F)(F)F)CC3)cnc2c1-c1ccc(CN2CCOCC2)cc1` [Example 137, (R)-6-((4-Hydroxy-1-(4,4,4-trifluoro-3-phenylbutanoyl)piperidin-4-yl)methyl)-2-methyl-3-(4-(morpholinomethyl)phenyl)-2H-pyrazolo[4,3-d]pyrimidin-7(6H)-one], for which, on USP7 (setting [2]), the IC50 is under 250 nM.
With `C[C@H](CC(=O)N1CCC(O)(Cn2cnc(NCCN3CC[C@@H](F)C3)cc2=O)CC1)c1ccccc1` [Example 73, 6-((2-((R)-3-Fluoropyrrolidin-1-yl)ethyl)amino)-3-((4-hydroxy-1-((R)-3-phenylbutanoyl)piperidin-4-yl)methyl)pyrimidin-4(3H)-one, Formic Acid], the IC50 on USP7 (setting [3]) was 250 to 999 nM.
Regarding `Cc1ccc([C@@H](CC(=O)N2CCC(O)(Cn3cnc4c(-c5ccc(CN)cc5)n(C)nc4c3=O)CC2)C(F)(F)F)s1` [Example 125, (S)-3-(4-(Aminomethyl)phenyl)-6-((4-hydroxy-1-(4,4,4-trifluoro-3-(5-methylthiophen-2-yl)butanoyl)piperidin-4-yl)methyl)-2-methyl-2H-pyrazolo[4,3-d]pyrimidin-7(6H)-one], at USP7 (setting [3]), the IC50 is 250 to 999 nM.

As usually defined, the IC50 is the midpoint of a concentration-inhibition curve. As a reminder, the EC50 is the concentration at which the effect is half-maximal. Read a high EC50 as a need for much substance.
